Assay [1] concerns the target Glutamate NMDA receptor; GRIN1/GRIN2B (Homo sapiens, UniProt Q05586+Q13224). The assay is described as follows: Inhibition of N-methyl-D-aspartate glutamate receptor-evoked increase of intracellular Ca+ in cells expressing NMDA glutamate receptor 1/2B. The assay is classed as functional, cell-based.
For assay [2], the target named is Glutamate [NMDA] receptor. Briefly: Inhibition of [3H]Ro-256981 binding to N-methyl-D-aspartate glutamate receptor. The assay is classed as protein-complex assay.

Usually IC50 stands for the concentration needed to halve the response being measured. Low values mean higher potency, high ones lower potency.

Sequence of Glutamate NMDA receptor; GRIN1/GRIN2B (Q13224 whole entry, other chains not shown): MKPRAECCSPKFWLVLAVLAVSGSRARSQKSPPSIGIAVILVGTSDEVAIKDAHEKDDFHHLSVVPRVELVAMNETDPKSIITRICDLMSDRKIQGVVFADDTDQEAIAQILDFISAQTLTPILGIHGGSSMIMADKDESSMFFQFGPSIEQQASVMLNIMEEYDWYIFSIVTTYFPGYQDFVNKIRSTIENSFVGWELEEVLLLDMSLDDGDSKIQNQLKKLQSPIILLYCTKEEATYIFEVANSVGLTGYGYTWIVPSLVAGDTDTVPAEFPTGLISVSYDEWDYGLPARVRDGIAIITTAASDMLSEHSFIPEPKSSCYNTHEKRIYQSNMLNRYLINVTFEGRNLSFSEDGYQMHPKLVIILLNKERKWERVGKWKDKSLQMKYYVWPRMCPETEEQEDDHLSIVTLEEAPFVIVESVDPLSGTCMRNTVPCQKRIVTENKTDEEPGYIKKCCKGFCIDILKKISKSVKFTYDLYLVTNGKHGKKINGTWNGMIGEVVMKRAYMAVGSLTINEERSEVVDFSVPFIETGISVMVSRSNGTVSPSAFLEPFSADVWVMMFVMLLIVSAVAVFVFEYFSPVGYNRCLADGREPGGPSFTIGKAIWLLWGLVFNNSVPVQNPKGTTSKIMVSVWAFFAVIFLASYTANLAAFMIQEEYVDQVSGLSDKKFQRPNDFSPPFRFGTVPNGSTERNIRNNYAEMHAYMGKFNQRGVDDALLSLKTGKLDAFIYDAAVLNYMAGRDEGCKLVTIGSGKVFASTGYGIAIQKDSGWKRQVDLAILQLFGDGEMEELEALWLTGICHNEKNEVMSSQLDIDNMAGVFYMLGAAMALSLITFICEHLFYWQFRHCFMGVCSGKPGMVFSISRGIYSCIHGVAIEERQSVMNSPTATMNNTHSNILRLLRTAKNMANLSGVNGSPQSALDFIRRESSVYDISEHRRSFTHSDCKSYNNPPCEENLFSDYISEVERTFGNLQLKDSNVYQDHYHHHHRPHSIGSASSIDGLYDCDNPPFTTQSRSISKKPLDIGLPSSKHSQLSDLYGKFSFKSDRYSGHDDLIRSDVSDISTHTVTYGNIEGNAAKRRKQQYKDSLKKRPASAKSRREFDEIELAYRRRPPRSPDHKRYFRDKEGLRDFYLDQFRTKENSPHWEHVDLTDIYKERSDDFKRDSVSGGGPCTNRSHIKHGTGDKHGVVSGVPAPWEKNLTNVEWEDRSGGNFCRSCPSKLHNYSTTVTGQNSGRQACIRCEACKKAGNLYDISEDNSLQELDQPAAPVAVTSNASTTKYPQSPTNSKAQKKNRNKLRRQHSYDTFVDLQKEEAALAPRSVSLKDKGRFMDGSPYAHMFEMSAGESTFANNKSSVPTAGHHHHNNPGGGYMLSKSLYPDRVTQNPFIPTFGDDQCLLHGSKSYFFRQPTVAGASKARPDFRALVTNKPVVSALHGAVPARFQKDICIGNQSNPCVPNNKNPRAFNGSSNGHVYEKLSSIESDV

For `O=C(c1cc2cc(O)cc(O)c2[nH]1)N1CCC(Cc2ccccc2)CC1`, the results for the IC50 in assay [1] and in assay [2] were 52 nM and 106 nM, respectively.
With `O=C(c1cc2ccc(O)cc2[nH]1)N1CCC(CCc2ccccc2)CC1`, the IC50 in assay [1] is 24 nM; in assay [2], 359 nM.
Taken in the same sequence, the figures for `O=C(c1cc2cccc(O)c2[nH]1)N1CCC(Cc2ccccc2)CC1` were 77 nM and 380 nM.
Taken in the same sequence, the figures for `O=C(c1cc2ccc(O)cc2[nH]1)N1CCC(Cc2ccccc2)CC1` were 20 nM and 12 nM.
Taken in the same sequence, the figures for `C[C@@H](CN1CCC(Cc2ccccc2)CC1)[C@@H](O)c1ccc(O)cc1` were 57 nM and 6 nM.
Regarding `O=c1[nH]c2ccc([S+]([O-])CCN3CCC(Cc4ccc(F)cc4)CC3)cc2o1` (stereo not drawn) [BESONPRODIL], the IC50 is 8 nM in assay [1] and 4 nM in assay [2].
As for `O=C(c1cc2ccc(O)cc2[nH]1)N1CCC(OCc2ccccc2)CC1`, the IC50 was found to be 46 nM in assay [1] and 47 nM in assay [2].
Taken in the same sequence, the figures for `O=C(/C=C/c1ccc(O)cc1)N1CCC(Cc2ccccc2)CC1` were 104 nM and 196 nM.
Taken in the same sequence, the figures for `O=C(c1cc2cc(O)ccc2[nH]1)N1CCC(Cc2ccccc2)CC1` were 40 nM and 31 nM.
Taken in the same sequence, the figures for `O=C(c1cc2c(O)cccc2[nH]1)N1CCC(Cc2ccccc2)CC1` were 39 nM and 18 nM.
`O=C(c1cc2c(O)cc(O)cc2[nH]1)N1CCC(Cc2ccccc2)CC1`: the 50% inhibitory concentration (IC50) in assay [1] was 10 nM; in assay [2], 6 nM.
Regarding `O=C(c1cc2ccc(O)cc2[nH]1)N1CCC(c2ccccc2)CC1`, the 50% inhibitory concentration (IC50) in assay [1] is more than 8000 nM.

(Values after ChEMBL document CHEMBL1136340, “Indole-2-carboxamides as novel NR2B selective NMDA receptor antagonists” (Bioorg Med Chem Lett, 2003).)
